Results: patent US20220185832A1, “CD73 INHIBITORS” (BioArdis LLC, priority 2019, published 2022)

Key:
[1] = biological target: T1, Cell surface CD73 of U87 MG human glioblastoma cells (Homo sapiens, UniProt P21589); assay: CD73 Cellular Assay; type: cell-based; conditions: 5000 cells per well, 30 μM AMP, PiColorLock phosphate detection in supernatant, read-out: Potency (IC50)
T1 construct: Cell surface CD73 catalyzes the conversion of adenosine monophosphate (AMP) to adenosine and inorganic phosphate; endogenous in cells; host or cells: U87 MG human glioblastoma cells
T1 sequence (P21589 27-549): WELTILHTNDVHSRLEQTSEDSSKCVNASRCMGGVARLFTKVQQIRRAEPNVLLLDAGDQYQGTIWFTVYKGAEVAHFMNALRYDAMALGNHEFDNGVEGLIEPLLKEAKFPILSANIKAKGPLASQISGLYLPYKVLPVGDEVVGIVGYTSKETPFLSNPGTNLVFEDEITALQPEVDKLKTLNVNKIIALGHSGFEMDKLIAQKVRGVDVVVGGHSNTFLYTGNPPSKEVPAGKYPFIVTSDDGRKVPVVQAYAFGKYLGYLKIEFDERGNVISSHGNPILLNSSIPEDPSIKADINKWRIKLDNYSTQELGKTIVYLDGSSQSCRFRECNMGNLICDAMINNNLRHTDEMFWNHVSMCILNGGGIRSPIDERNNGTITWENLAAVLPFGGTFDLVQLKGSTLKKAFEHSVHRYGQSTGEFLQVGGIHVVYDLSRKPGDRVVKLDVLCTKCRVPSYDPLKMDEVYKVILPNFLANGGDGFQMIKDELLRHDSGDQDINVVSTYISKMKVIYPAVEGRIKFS
Description: Cell surface CD73 catalyzes the conversion of adenosine monophosphate (AMP) to adenosine and inorganic phosphate. U87 MG human glioblastoma cells express high level of CD73. Cells are treated with compounds in a 96-well assay plate and supernatants are collected into a 384-well detection plate. The concentration of inorganic phosphate (Pi) in the supernatants is determined using the phosphate detection reagent, PiColorLock™ (Innova Bioscience, Cat #303-0125) following the manufacturer's instructions.
Briefly, on the day of the assay, U87 MG cells were harvested and resuspended in assay buffer which consisted of 20 mM HEPES, pH=7.4, 137 mM NaCl, 5.4 mM KCl, 1.3 mM CaCl2, 4.2 mM NaHCO3 and 0.1% glucose. To test the effect of compounds on cellular CD73 enzymatic activity, 500 nL/well of compounds dissolved in DMSO were added to a 96-well TC-treated microplate (Corning #3599). Next, 80 μL/well of U87 MG cells in assay buffer were added to assay plate. After 30 minutes of incubation in an atmosphere of 5% CO2 at 37° C., 20 μL/well of 150 μM AMP (Adenosine 5′-monophosphate monohydrate, Sigma, Cat #01930) in assay buffer was added to assay plate. Final assay conditions consisted of 5000 cells per well in 0.5% DMSO and 30 μM AMP substrate. After 50 minutes of incubation in an atmosphere of 5% CO2 at 37° C., 50 μL/well of supernatant was transferred to the 384-well detection plate (Corning® NBSTM 384 well plates, Cat #3640). Meanwhile “Gold mix” was prepared shortly before use by adding 1/100 volume of accelerator to the PiColorLock™ Gold reagent. 12 μL/well of the “Gold mix” was added to detection plate containing 50 μL/well of supernatant and incubated at 25° C. for 5 minutes. 5 μL/well stabilizer was added to the detection plate and incubated at 25° C. for 30 minutes. The absorbance at 635 nm was measured on a Spark 10M instrument (TECAN).
(§1) The percent (%) inhibition at each concentration of a compound was calculated relative to the OD value in the Max and Min control wells contained within each assay plate. The Max control wells contained cells and substrate as 0% inhibition, and the Min control wells only contained cells as 100% inhibition. The concentrations and percent inhibition values for a test compound are plotted and the concentration of the compound required to achieve 50% inhibition (IC50) was determined with a four-parameter logistic dose response equation.

[2] = biological target: T2, Recombinant Human 5′-Nucleotidase (CD73) (Homo sapiens, UniProt P21589); assay: CD73 Enzyme Assay; type: biochemical; conditions: 0.5 nM human CD73, 30 μM AMP, PiColorLock phosphate detection, OD 635 nm; read-out: Potency (IC50)
T2 construct: CHO derived CD73 (Trp27-Lys547), with a C-terminal 6-His tag; 6-His (C); purchased R&D 5795-EN; host or cells: CHO
T2 sequence (P21589 27-547): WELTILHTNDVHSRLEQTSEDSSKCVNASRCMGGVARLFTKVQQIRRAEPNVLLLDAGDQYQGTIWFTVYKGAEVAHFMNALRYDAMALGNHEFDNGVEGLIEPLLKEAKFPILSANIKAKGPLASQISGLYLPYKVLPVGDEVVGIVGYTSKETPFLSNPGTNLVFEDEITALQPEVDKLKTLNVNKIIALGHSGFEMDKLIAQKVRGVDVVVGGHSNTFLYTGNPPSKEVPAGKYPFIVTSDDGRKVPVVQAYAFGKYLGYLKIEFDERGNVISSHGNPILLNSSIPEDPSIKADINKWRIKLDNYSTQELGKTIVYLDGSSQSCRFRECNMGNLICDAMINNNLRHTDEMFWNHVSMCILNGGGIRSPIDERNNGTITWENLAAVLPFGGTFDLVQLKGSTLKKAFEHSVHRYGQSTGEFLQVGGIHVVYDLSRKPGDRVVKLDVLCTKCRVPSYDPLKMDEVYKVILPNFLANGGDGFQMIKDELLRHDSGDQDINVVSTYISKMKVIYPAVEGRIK
Excerpt: Soluble recombinant CD73 catalyzes the conversion of adenosine monophosphate (AMP) to adenosine and inorganic phosphate. The phosphate detection reagent, PiColorLock™ (Innova Bioscience, Cat #303-0125) is based on the change in absorbance of the dye malachite green in the presence of inorganic phosphate (Pi) and this property can be exploited to measure any enzyme that generates Pi. Recombinant Human 5′-Nucleotidase (CD73) (R&D #5795-EN, CHO derived CD73 (Trp27-Lys547), with a C-terminal 6-His tag) was used in the enzymatic assay. This assay was run in a 384-well plate format (Corning® NBS™ 384 well plates, Cat #3640). The basic assay procedure involves two steps: 1) Enzyme reaction: The CD73 enzyme (R&D #5795-EN) is incubated in the presence or absence of compounds. AMP (sigma, cat #01930) is added to start the kinase reaction. 2) Detection step: “Gold mix” is added to the assay system, then stabilizers are added. After incubation the absorbance of the solution is read at OD 635 nm. The recorded OD signal is proportional to the enzyme activity.
Briefly, 25 μl human CD73 (0.5 nM final concentration) in the enzymatic buffer solutions (20 mM Tris, 25 mM NaCl, 1 mM MgCl2, pH 7.5, 0.005% Tween-20) were mixed with various concentrations of the test compound (dissolved in 100% DMSO). These solutions were incubated for 15 min at 25° C., and subsequently 25 μl AMP (30 μM final concentration) was added to start the reaction. The final reaction mixture of enzyme-substrate-compound was incubated for 20 min at 37° C. Meanwhile, “Gold mix” was prepared shortly before use by adding 1/100 vol. of accelerator to the PiColorLock™ Gold reagent. 12 μL/well of the “Gold mix” was added to assay plate containing 50 μL enzyme reaction buffer and incubated at 25° C. for 5 min. 5 μL/well stabilizer was added to the assay plate and incubated at 25° C. for 30 min. The absorbance of the well solutions was measured at 635 nm on a Spark 10M instrument (TECAN).
as §1, with “wells contained enzyme and substrate” for “wells contained cells and substrate”, “only contained substrate without enzyme as 100%” for “only contained cells as 100%”

IC50 [1] [nM] | IC50 [2] [nM] | Compound
100 to 999 | < 10 | O=P(O)(O)CP(=O)(O)OC[C@H]1O[C@@H](c2ccc3c(NCC4CCCC(O)C4)nc(Cl)nc3c2)[C@H](O)[C@@H]1O (stereo partly drawn) [Compound 28, (((((2R,3S,4R,5S)-5-(2-chloro-4-(((3-hydroxycyclohexyl)methyl)amino)quinazolin-7-yl)-3,4-dihydroxytetrahydrofuran-2-yl)methoxy)(hydroxy)phosphoryl)methyl)phosphonic acid]
< 10 | < 10 | O=P(O)(O)CP(=O)(O)OC[C@H]1O[C@@H](c2ccc3c(NC4CCc5ccccc54)nc(Cl)nc3c2)[C@H](O)[C@@H]1O (stereo partly drawn) [Compound 25, [({[(2R,3S,4R,5S)-5-[2-chloro-4-(2,3-dihydro-1H-inden-1-ylamino)quinazolin-7-yl]-3,4-dihydroxyoxolan-2-yl]methoxy}(hydroxy)phosphoryl)methyl]phosphonic acid]
– | 10 to 99 | O=P(O)(O)CP(=O)(O)OC[C@H]1O[C@@H](c2ccc3c(NC4CCC(O)CC4)nc(Cl)nc3c2)[C@H](O)[C@@H]1O (stereo partly drawn) [Compound 26, (((((2R,3S,4R,5S)-5-(2-chloro-4-((4-hydroxycyclohexyl)amino)quinazolin-7-yl)-3,4-dihydroxytetrahydrofuran-2-yl)methoxy)(hydroxy)phosphoryl)methyl)phosphonic acid]
– | 100 to 999 | CN(c1nc(Cl)nc2cc([C@@H]3O[C@H](COP(=O)(O)CP(=O)(O)O)[C@@H](O)[C@@H]3F)ccc12)C1CCCC1 [Compound 15, (((((2R,3R,4S,5S)-5-(2-chloro-4-(cyclopentyl(methyl)amino)quinazolin-7-yl)-4-fluoro-3-hydroxytetrahydrofuran-2-yl)methoxy)(hydroxy)phosphoryl)methyl)phosphonic acid]
– | 10 to 99 | O=P(O)(O)CP(=O)(O)OC[C@H]1O[C@@H](c2ccc3c(N4CCCC4)nc(Cl)nc3c2)[C@H](O)[C@@H]1O [Compound 29, (((((2R,3S,4R,5S)-5-(2-chloro-4-(pyrrolidin-1-yl)quinazolin-7-yl)-3,4-dihydroxytetrahydrofuran-2-yl)methoxy)(hydroxy)phosphoryl)methyl)phosphonic acid]
– | 10 to 99 | O=P(O)(O)CP(=O)(O)OC[C@H]1O[C@@H](c2ccc3c(NCC4CCOC4)nc(Cl)nc3c2)[C@H](O)[C@@H]1O (stereo partly drawn) [Compound 21, [({[(2R,3S,4R,5S)-5-[2-chloro-4-[(oxolan-3-ylmethyl)amino]quinazolin-7-yl]-3,4-dihydroxyoxolan-2-yl]methoxy}(hydroxy)phosphoryl)methyl]phosphonic acid]

Second part, the compound before the results:

Compound | IC50 [1] [nM] | IC50 [2] [nM]
CN(c1ncnc2cc([C@@H]3O[C@H](COP(=O)(O)CP(=O)(O)O)[C@@H](O)[C@H]3O)ccc12)C1CCCC1 [Compound 10, (((((2R,3S,4R,5S)-5-(4-(cyclopentyl(methyl)amino)quinazolin-7-yl)-3,4-dihydroxytetrahydrofuran-2-yl)methoxy)(hydroxy)phosphoryl)methyl)phosphonic acid] | < 10 | 10 to 99
C=Cc1nc(NCc2ccccc2)c2ccc([C@@H]3O[C@H](COP(=O)(O)CP(=O)(O)O)[C@@H](O)[C@H]3O)cc2n1 [Compound 18, [({[(2R,3S,4R,5S)-5-[4-(benzylamino)-2-ethenylquinazolin-7-yl]-3,4-dihydroxyoxolan-2-yl]methoxy}(hydroxy)phosphoryl)methyl]phosphonic acid] | < 10 | 10 to 99
O=P(O)(O)CP(=O)(O)OC[C@H]1O[C@@H](c2cc3nc(Cl)nc(NCc4ccccc4)c3cc2F)[C@H](O)[C@@H]1O [Compound 19, (((((2R,3S,4R,5S)-5-(4-(benzylamino)-2-chloro-6-fluoroquinazolin-7-yl)-3,4-dihydroxytetrahydrofuran-2-yl)methoxy)(hydroxy)phosphoryl)methyl)phosphonic acid] | – | 100 to 999
O=P(O)(O)CP(=O)(O)OC[C@H]1O[C@H](c2ccc3c(NCc4ccccc4)nc(Cl)nc3c2)[C@@H](F)[C@@H]1O [Compound 14, [({[(2R,3R,4S, 5R)-5-[4-(benzylamino)-2-chloroquinazolin-7-yl]-4-fluoro-3-hydroxyoxolan-2-yl]methoxy}(hydroxy)phosphoryl)methyl]phosphonic acid] | – | > 1000
CCc1nc(NCc2ccccc2)c2ccc([C@@H]3O[C@H](COP(=O)(O)CP(=O)(O)O)[C@@H](O)[C@H]3O)cc2n1 [Compound 20, [({[(2R,3S,4R,5S)-5-[4-(benzylamino)-2-ethylquinazolin-7-yl]-3,4-dihydroxyoxolan-2-yl]methoxy}(hydroxy)phosphoryl)methyl]phosphonic acid] | – | 100 to 999
